Columns and labels:
[1] = system: Glomerella Lagenarium Syn. Colletotrichum lagenarium; assay: Glomerella lagenarium growth inhibition in nutrient broth, microtiter plate; format: cell-based; settings: alone, 72 hrs
Protocol: (§1) Glomerella Lagenarium Syn. Colletotrichum lagenarium (Anthracnose of Cucurbits): Conidia of the fungus from cryogenic storage were directly mixed into nutrient broth (PDB potato dextrose broth). A DMSO solution of the test compounds was placed into a microtiter plate (96-well format) and the nutrient broth containing the fungal spores was added to it. The test plates were incubated at 24 C and the inhibition of growth was determined photometrically after 72 hrs at 620 nm.

[2] = system: Botrytis cinerea; assay: Botrytis cinerea growth inhibition in nutrient broth, microtiter plate; format: cell-based; settings: alone, 72 hrs
Protocol: as §1, with “Botrytis cinerea (Gray Mould):” for “Glomerella Lagenarium Syn. Colletotrichum lagenarium (Anthracnose of Cucurbits):”, “([…]” for “(PDB”, “hrs.” for “hrs at 620 nm.”

[3] = system: Sclerotinia sclerotiorum; assay: Sclerotinia sclerotiorum growth inhibition in nutrient broth, microtiter plate; format: cell-based; settings: alone, 72 hrs
Protocol: as §1, with “Sclerotinia sclerotiorum (Cottony Rot, White Mold, Etc.): Mycelial fragments” for “Glomerella Lagenarium Syn. Colletotrichum lagenarium (Anthracnose of Cucurbits): Conidia”, “fungus prepared” for “fungus”, “a fresh liquid culture” for “cryogenic storage”

[4] = system: Mycosphaerella arachidis Syn. Cercospora arachidicola; assay: Mycosphaerella arachidis growth inhibition in nutrient broth, microtiter plate; format: cell-based; settings: alone, 5-6 days
Protocol: as §1, with “Mycosphaerella arachidis” for “Glomerella Lagenarium”, “Cercospora arachidicola (Brown Leaf Spot” for “Colletotrichum lagenarium (Anthracnose”, “Peanut):” for “Cucurbits):”, “5-6 days” for “72 hrs”, “nm” for “nm.”

[5] = system: Alternaria solani; assay: Alternaria solani growth inhibition in nutrient broth, microtiter plate; format: cell-based; settings: alone, 48 hrs
Protocol: as §1, with “Alternaria solani (Early Blight Tomato/Potato):” for “Glomerella Lagenarium Syn. Colletotrichum lagenarium (Anthracnose of Cucurbits):”, “48 hrs.” for “72 hrs at 620 nm.”

[6] = system: Septoria tritici; assay: Septoria tritici growth inhibition in nutrient broth, microtiter plate; format: cell-based; settings: alone, 72 hrs
Protocol: as §1, with “Septoria tritici (Leaf Blotch):” for “Glomerella Lagenarium Syn. Colletotrichum lagenarium (Anthracnose of Cucurbits):”, “hrs.” for “hrs at 620 nm.”

[7] = system: Phakopsora pachyrhizi (Asian soybean rust); assay: Phakopsora pachyrhizi on leaf disks from sprayed soybean plants; format: in vivo; settings: alone, 11 to 14 days after inoculation; for inhibition at 1 g/ha: 1 g ai/ha
Protocol: Phakopsora Pachyrhizi (Soybean Rust):
Whole soybean plants are treated with the recited active ingredients 4 weeks after planting. 1 day after spraying leaf disks are cut from the first trifoliate leaf. Five repetitions at each rate are conducted. The leaf disks are inoculated with Phakopsora pachyrhizi (Asian soybean rust) one day after treatment. Evaluation of the leaf disks is conducted 11 to 14 days after inoculation and the activity is derived from the relation of the treated vs untreated, infested check. The rates of the active ingredients used are given in Table as g active ingredient (a.i.)/ha.

[8] = Phakopsora pachyrhizi, foliar, read-out: Observed Activity (%)

| Structure (SMILES) | Observed Activity (%) ([1]; 0.001 g ai/ha) | Observed Activity (%) ([1]; 0.005 g ai/ha) | Observed Activity (%) ([2]; 0.005 g ai/ha) | Observed Activity (%) ([3]; 0.001 g ai/ha) | Observed Activity (%) ([3]; 0.005 g ai/ha) | Observed Activity (%) ([4]; 0.001 g ai/ha) | Observed Activity (%) ([4]; 0.005 g ai/ha) | Observed Activity (%) ([5]; 0.005 g ai/ha) | Observed Activity (%) ([6]; 0.001 g ai/ha) | inhibition at 1 g/ha [7, 8] | Observed Activity (%) ([7]; 0.25 g ai/ha) | Observed Activity (%) ([7]; 0.5 g ai/ha) | other results |
| --- | --- | --- | --- | --- | --- | --- | --- | --- | --- | --- | --- | --- | --- |
| COC(=O)NCc1cc(-c2ccn(-c3c(F)cc(C(C)C)cc3F)n2)ccc1C [Compound A-1.1, Methyl N-[[5-[1-(2,6-difluoro-4-isopropyl-phenyl)pyrazol-3-yl]-2-methyl-phenyl]methyl]carbamate] | 0% | 0% | 0% | 0% | 0% | 0% | 20% | 0% | 20% | 0% | – | – | – |
| COC(=O)NCc1cc(-c2ccn(-c3c(F)cc(C4CC4)cc3F)n2)ccc1C [Compound A-1.3, methyl N-[[5-[1-(4-cyclopropyl-2,6-difluoro-phenyl)pyrazol-3-yl]-2-methyl-phenyl]methyl]carbamate] | 0% | 0% | 0% | 0% | 0% | 0% | 50% | 20% | 50% | 2% | – | – | Observed Activity (%) ([5]; 0.01 g ai/ha): 50%; inhibition at 0.5 g/ha ([7]; Phakopsora pachyrhizi, foliar, 0.5 g ai/ha, read-out: Observed Activity (%)): 0% |
| O=C(Nc1ccccc1F)c1ccc(-c2noc(C(F)(F)F)n2)cc1 [Flufenoxadiazam, flufenoxadiazam] | – | – | – | – | – | – | – | – | – | – | 0% | 10% | Observed Activity (%) ([5]; 2.22 g ai/ha): 0%; Observed Activity (%) ([5]; 6.66 g ai/ha): 0%; Observed Activity (%) ([5]; 20 g ai/ha): 0% |
| CCC(=O)Oc1c(OC)ccnc1C(=O)N[C@@H](C)C(=O)O[C@@H](C)[C@@H](C)c1ccccc1C [Metarylpicoxamid, metarylpicoxamid] | – | – | – | – | – | – | – | – | – | – | 0% | 34% | Observed Activity (%) ([1]; 0.22 g ai/ha): 0%; Observed Activity (%) ([1]; 0.66 g ai/ha): 0%; Observed Activity (%) ([1]; 2 g ai/ha): 70%; Observed Activity (%) ([2]; 0.0246 g ai/ha): 0%; Observed Activity (%) ([2]; 0.074 g ai/ha): 20%; Observed Activity (%) ([2]; 0.22 g ai/ha): 50%; Observed Activity (%) ([3]; 2 g ai/ha): 50%; Observed Activity (%) ([4]; 0.0080 g ai/ha): 20%; Observed Activity (%) ([4]; 0.0246 g ai/ha): 50%; Observed Activity (%) ([5]; 0.074 g ai/ha): 0%; Observed Activity (%) ([5]; 0.22 g ai/ha): 20%; Observed Activity (%) ([5]; 0.66 g ai/ha): 50%; Observed Activity (%) ([6]; 0.008 g ai/ha): 20%; Observed Activity (%) ([6]; 0.0246 g ai/ha): 50%; Observed Activity (%) ([6]; 0.074 g ai/ha): 70% |
